This note sets out measurements from ChEMBL document CHEMBL6153039, “Synthesis and structural modification of the natural product Ivesinol to discover novel autophagy activators” (Eur J Med Chem, 2025).

Data set [1] relates to MCF7. The data set is described as follows: Induction of autophagy in human MCF7 cells assessed as p62/GAPDH ratio (reference value: 0.96). The data set is classed as functional.
Data set [2] deals with MCF7. The experiment in a line: Induction of autophagy in human MCF7 cells assessed as upregulation of LC3-II to LC3-I ratio at 20 uM incubated for 4 hrs by Western blotting analysis. The data set is classed as functional, cell-based. (In general: Immunoblotting shows a protein as a band on a membrane.)
The subject of data set [3] is MCF7. The experiment in a line: Induction of autophagy in human MCF7 cells assessed as p62/GAPDH ratio (reference value: 1.20). In kind it is functional.
The test system of data set [4] is MCF7. The data set is described as follows: Induction of autophagy in wild type human MCF7 cells assessed as decrease in LC3-I level at 20 uM incubated for 4 hrs by Western blotting analysis. In kind it is functional, cell-based.
For data set [5], the system named is MCF7. The experiment in a line: Induction of autophagy in wild type human MCF7 cells assessed as increase in LC3-II level at 20 uM incubated for 4 hrs by Western blotting analysis. In kind it is functional, cell-based.
For data set [6], the system named is MCF7. The data set is described as follows: Inhibition of autophagy in human MCF7 cells assessed as increase in p62 protein level incubated for 4 hrs by Western blotting analysis. In kind it is functional, cell-based. The note with it: dose 0.1-2 µM.
For data set [7], the system named is MCF7. The experiment in a line: Inhibition of autophagy in human MCF7 cells assessed as increase in LC3-II protein level incubated for 4 hrs by Western blotting analysis. The note with it: dose 0.1-2 µM. In kind it is functional, cell-based.
The subject of data set [8] is MCF7. The experiment in a line: Inhibition of autophagy in human MCF7 cells assessed as increase in LC3-I protein level incubated for 4 hrs by Western blotting analysis. The note with it: dose 0.1-2 µM. In kind it is functional, cell-based.
Data set [9] deals with HEK293. The data set is described as follows: Inhibition of autophagy in HEK293 cells assessed as increase in p62 protein level incubated for 4 hrs by Western blotting analysis. In kind it is functional, cell-based. The note with it: Homo sapiens, dose 0.1-2 µM.
The test system of data set [10] is HEK293. The data set is described as follows: Inhibition of autophagy in HEK293 cells assessed as increase in LC3-II protein level incubated for 4 hrs by Western blotting analysis. In kind it is functional, cell-based. The note with it: Homo sapiens, dose 0.1-2 µM.
Data set [11] relates to HEK293. The data set is described as follows: Inhibition of autophagy in HEK293 cells assessed as increase in LC3-I protein level incubated for 4 hrs by Western blotting analysis. The data set is classed as functional, cell-based. The note with it: Homo sapiens, dose 0.1-2 µM.
For data set [12], the system named is MCF7. The experiment in a line: Induction of autophagy in human […] cells increase in LC3-II protein level incubated for 4 hrs by Western blotting analysis. The note with it: dose 0.5-10 µM. The data set is classed as functional, cell-based.
Data set [13] deals with MCF7. The experiment in a line: Induction of autophagy in human MCF7 cells expressing pEGFP-LC3 assessed as increase in LC3 puncta at 20 uM incubated for 4 hrs by fluorescence microscopic analysis. In kind it is functional, cell-based.
For data set [14], the system named is MCF7. The experiment in a line: Induction of autophagy in wild type human MCF7 cells assessed as increase in LC3-II level at 10 uM incubated for 6 to 8 hrs by Western blotting analysis. The data set is classed as functional, cell-based. The note with it: time 6-8 hrs.
The subject of data set [15] is MCF7. The experiment in a line: Induction of autophagy in human MCF7 cells assessed as increase in LC3-II/LC3-1 rate at 20 uM incubated for 4 hrs by Western blotting analysis. The data set is classed as functional, cell-based.
Data set [16] has as its system MCF7. The experiment in a line: Induction of autophagy in wild type human MCF7 cells assessed as decrease in p62 level at 10 uM incubated for 1 to 4 hrs by Western blotting analysis. The data set is classed as functional, cell-based. The note with it: time 1-4 hrs.
The nature of data set [17]: Cytotoxicity against human […] cells assessed as reduction in cell viability at 0.3125 to 40 uM incubated for 24 hrs by MTT assay. The note with it: dose 0.3125-40 µM. In kind it is toxicity, cell-based. (In general: Tetrazolium dyes change colour on reduction, which living cells bring about.)
Data set [18] has as its system MCF7. The experiment in a line: Induction of autophagy in human MCF7 cells assessed as decrease in p62 level at 20 uM incubated for 4 hrs by Western blotting analysis. In kind it is functional, cell-based.
The test system of data set [19] is MCF7. The data set is described as follows: Cytotoxicity against human MCF7 cells assessed as reduction in cell viability at 0.3125 to 40 uM incubated for 24 hrs by MTT assay. The data set is classed as functional, cell-based. The note with it: dose 0.3125-40 µM.
The test system of another data set is BEAS-2B. The experiment in a line: Cytotoxicity against human BEAS-2B cells assessed as reduction in cell viability at 0.3125 to 40 uM incubated for 24 hrs by MTT assay. The data set is classed as toxicity, cell-based. The note with it: dose 0.3125-40 µM.
Data set [20] relates to MCF7. The data set is described as follows: Induction of autophagy in pEGFP-LC3-labeled human MCF7 cells assessed as formation of autophagosome by measuring the appearance of clustered granules near the nucleus at 10 uM by laser confocal microscopic imaging analysis. The data set is classed as functional, cell-based. The note with it: time 1-8 hrs.
Data set [21] deals with HEK293. The data set is described as follows: Induction of autophagy in HEK293 cells assessed as increase in LC3-II protein level incubated for 4 hrs by Western blotting analysis. The data set is classed as functional, cell-based. The note with it: Homo sapiens, dose 0.5-10 µM.
The test system of data set [22] is MCF7. The data set is described as follows: Induction of autophagic flux in wild type human MCF7 cells assessed as increase in LC3-I protein level at 10 uM incubated for 4 hrs in the presence of bafilomycin A1 by Western blotting analysis. In kind it is functional, cell-based.
The test system of data set [23] is HEK293. The data set is described as follows: Induction of autophagy in HEK293 cells assessed as decrease in p62 protein level incubated for 4 hrs by Western blotting analysis. In kind it is functional, cell-based. The note with it: Homo sapiens, dose 0.5-10 µM.
Data set [24] deals with MCF7. The data set is described as follows: Induction of autophagic flux in wild type human MCF7 cells assessed as increase in p62 protein level at 10 uM incubated for 4 hrs in the presence of bafilomycin A1 by Western blotting analysis. In kind it is functional, cell-based.
The test system of data set [25] is MCF7. The experiment in a line: Induction of autophagic flux in wild type human MCF7 cells assessed as increase in LC3-II protein level at 10 uM incubated for 4 hrs in the presence of bafilomycin A1 by Western blotting analysis. The data set is classed as functional, cell-based.
Data set [26] has as its system MCF7. The data set is described as follows: Induction of autophagy in human […] cells assessed as decrease in p62 protein level incubated for 4 hrs by Western blotting analysis. The note with it: dose 0.5-10 µM. In kind it is functional, cell-based.
The test system of data set [27] is MCF7. The experiment in a line: Induction of autophagy in wild type human MCF7 cells assessed as increase in LC3-II level at 10 uM incubated for 1 to 4 hrs by Western blotting analysis. In kind it is functional, cell-based. The note with it: time 1-4 hrs.
For the next data set, the system named is L02. The data set is described as follows: Cytotoxicity against human LO2 cells assessed as reduction in cell viability at 0.3125 to 40 uM incubated for 24 hrs by MTT assay. In kind it is toxicity, cell-based. The note with it: l02, 24 h, dose 0.3125-40 µM.

Active and inactive are the calls of the source. The calls are words filed in the database; no cut-off is given here.

On to `CCCCC(=O)c1c(O)c(C)c(OC)c(Cc2c(O)c(C(=O)CCCC)c(O)c(C)c2OC)c1O`, for which the Ratio in the data set with MCF7 [1] was 0.86. Moreover, the outcome in the data set with MCF7 [2] was Active.

As for `COc1c(C)c(O)c(C(=O)C(C)C)c(O)c1Cc1c(O)c(C(=O)C(C)(C)C)c(O)c(C)c1OC`, the Ratio in the data set with MCF7 [3] was determined as 0.98. The outcome in the data set with MCF7 [2] was Active.

As for `CCCCCc1c(O)c(C)c(OC)c(Cc2c(O)c(CCCCC)c(O)c(C)c2OC)c1O`, the Ratio in the data set with MCF7 [1] is reported as 0.97.

Regarding `COc1c(Cc2c(O)c(C)c(O)c(C(=O)C(C)C)c2OC)c(O)c(C)c(O)c1C(=O)C(C)C`, the Ratio with MCF7 [1] was determined as 0.92.

For `COc1c(C)c(O)c(C(C)=O)c(O)c1Cc1c(O)c(C)c(O)c(C(=O)C(C)C)c1OC`, the Ratio in the data set on MCF7 [3] is on record as 0.71. The result in the data set on MCF7 [2] was Active.

Regarding `CCCCC(=O)c1c(O)c(C)c(OC)c(Cc2c(O)c(C)c(O)c(C(=O)CCCC)c2OC)c1O`, the Ratio in the data set on MCF7 [3] is 1.05.

As to `CCCCC(=O)c1c(O)c(C)c(O)c(Cc2c(O)c(C)c(O)c(C(=O)CCCC)c2OC)c1OC`, in the data set on MCF7 [1], the Ratio is reported as 0.84. The result with MCF7 [2] was Active.

Regarding `COc1c(C)c(O)c(C(=O)C(C)(C)C)c(O)c1Cc1c(O)c(C(=O)C(C)(C)C)c(O)c(C)c1OC`, the Ratio in the data set with MCF7 [1] turned out to be 1.18.

On to `CCC(=O)c1c(O)c(C)c(OC)c(Cc2c(O)c(C(=O)C(C)C)c(O)c(C)c2OC)c1O`, for which, in the data set on MCF7 [3], the Ratio is 0.86. In addition, the outcome with MCF7 [2] was Active.

Regarding `CCCCC(=O)c1c(O)c(C)c(OC)c(Cc2c(O)c(C(C)=O)c(O)c(C)c2OC)c1O`, the Ratio with MCF7 [3] was 0.85. Also, the outcome in the data set with MCF7 [2] was Active.

Take `COc1c(C)c(O)c(C(=O)C(C)C)c(O)c1Cc1c(O)c(C)c(O)c(C(=O)C(C)C)c1OC`: in the data set with MCF7 [3], the Ratio was 0.7. Moreover, the result in the data set on MCF7 [2] was Active.

For `COc1c(C)c(O)c(CC(C)C)c(O)c1Cc1c(O)c(CC(C)C)c(O)c(C)c1OC`, in the data set on MCF7 [1], the Ratio worked out at 0.95.

As to `CCN(CC)CCCC(C)Nc1ccnc2cc(Cl)ccc12` (stereo unspecified), the outcome with MCF7 [4] was inactive. Further, the outcome with MCF7 [5] was Active.

Take `CCC(=O)c1c(O)c(Cc2c(O)c(C(=O)CC)c(O)c(C(=O)CC)c2O)c(O)c(C(=O)CC)c1O`: the inhibition result in the data set with MCF7 [6], with MCF7 [7], with MCF7 [8], with HEK293 [9], with HEK293 [10] and with HEK293 [11] was “Dose-dependent-effect” each time.

Consider `COc1c(C)c(O)c(C(C)=O)c(O)c1Cc1c(O)c(C(=O)C(C)C)c(O)c(C)c1OC`, for which the Ratio with MCF7 [3] is 0.84. In addition, the result in the data set with MCF7 [2] was Active.

On to `COc1c(C)c(O)c(C(=O)C(C)C)c(O)c1Cc1c(O)c(C(=O)C(C)C)c(O)c(C)c1OC`, for which the Activity result with MCF7 [12] was “Dose-dependent-effect”; with MCF7 [13], “Active; Higher Activity Observed”; in data set [17], “Toxic”; in the data set with BEAS-2B, “Toxic”; in the data set with MCF7 [20], “Time-dependent-effect”; in the data set with HEK293 [21], “Dose-dependent-effect”. Further, the results for the Activity entry with HEK293 [23], in the data set with MCF7 [26] and in the data set with L02 were “Dose-dependent-effect”, “Dose-dependent-effect” and “Toxic”, respectively. Also, the Ratio with MCF7 [1] is 0.73. Besides, the outcome in the data set on MCF7 [14] was inactive. In addition, the result in the data set with MCF7 [15], with MCF7 [16], in the data set with MCF7 [18], with MCF7 [19], in the data set with MCF7 [2] and in the data set on MCF7 [22] was Active. Besides, the result in the data set on MCF7 [24], in the data set on MCF7 [25], in the data set on MCF7 [27], with MCF7 [4] and with MCF7 [5] was Active.
